Legend:
Type in all cases: cell-based, human
Caco-2 cells = experiment: Ca2+ transport across Caco-2 monolayer without calcium gradient; conditions: 10 nM 1.25(OH)2-vitamin D3, last 48 hours; no Ca2+ gradient, 1.8 mM on each side
Method: The Caco-2 cells were cultivated in on permeable support for 11-14 days, slightly modified according to Giuliano A. R., & Wood R. J. On the day of the experiments the trans-epithelial electrical resistance was measured and only preparations with values between 400 and 900 Ohms×cm^2 were counted. Tested substances were given in the top compartment and effect as read after 24 to 48 h. Ca^2+ flux was measured using liquid scintillation comparing the lower compartment with the upper.
In the present experiment the Caco-2 cells were cultured and grown to epithelium-shaped confluence over 14 days. The following experiments were performed according to Giuliano A. R., & Wood R. J. The effect of 10 nM 1.25(OH)2-vitamin D3 on the calcium transport was tested during the last 48 hours. Flux was tested without calcium (Ca^2+) gradient, concentration of calcium was 1.8 mM on each side of the layer of cells.
In the present experiment the Caco-2 cells were cultured and grown to epithelium-shaped confluence over 12 days. The cells were then grown in another 4 days in presence of 0.1 mM GCA, or in presence with 0.5 mM butyrate, or in presence of the GCA and butyrate in combination.
The effect of 10 nM 1.25(OH)2-vitamin D3 on the calcium transport was tested during the last 48 hours. […]

Hsp 90β = Hsp 90β expression in Caco-2 cells, western blot; conditions: 48 h, GCA 1×10^−4 M, butyrate 5×10^−4 M, vs. vehicle control
Method: Caco-2 cells with a passage or about 45 (number of time they have been divided) (Sigma-Aldrich Stockholm Sweden) were cultured in Dulbecco's Modified Eagle's Medium (Life Technologies Invitrogen AB, Lidingo, Sweden), with 10% Foetal Bovine Serum (FBS) (Life Technologies), 1% Non Essential Amino Acid (NEAA) (Life Technologies), 100 IU/mL Penicillin Streptomycin (Pen-Strep) (Life Technologies). The cells were incubated in 37° C. with 5% CO2 and cultured in a cell culture flask (BD Falcon®, VWR Internationals, Stockholm, Sweden) and the medium was changed at Monday, Wednesday and Friday every week. […]
For the protein harvesting, the cells was scraped into lysis buffer in protein kinase blocking solution (1% Triton x-100, EDTA; ethylenediaminetetraacetic acid) containing protein kinase inhibitor buffer (10 mM potassium phosphate buffer pH 6.8, 10 mM 3-[(3-cholamidopropyl) dimethylammonio]-1-propane sulphonate (CHAPS: Boehringer Mannheim, Mannheim, Germany) and protease inhibitor cocktail tablet Complete (Roche Diagnostics AB, Stockholm, Sweden). After shaking several times on ice, the cell debris was removed by centrifugation (10000×g for 10 min at 4° C.) and the supernatant's protein content was analysed using the Bradford method. […]

claudin-2 = experiment: Claudin-2 protein expression in Caco-2 cells, western blot; conditions: vitamin D 10 μM or 100 μM, geldanamycin 0.5 μM
Method: Caco-2 cells with a passage or about 45 (number of time they have been divided) (Sigma-Aldrich Stockholm Sweden) were cultured in Dulbecco's Modified Eagle's Medium (Life Technologies Invitrogen AB, Lidingo, Sweden), with 10% Foetal Bovine Serum (FBS) (Life Technologies), 1% Non Essential Amino Acid (NEAA) (Life Technologies), 100 IU/mL Penicillin Streptomycin (Pen-Strep) (Life Technologies). The cells were incubated in 37° C. with 5% CO2 and cultured in a cell culture flask (BD Falcon®, VWR Internationals, Stockholm, Sweden) and the medium was changed at Monday, Wednesday and Friday every week.
The cells were cultured for approximately 1 week before they were detached (0.25% trypsin-EDTA, Life Technologies) and seeded in 6 well plates with semipermeable filter inserts (3 μm pore size, BD Biosciences, Le Pont de Claix, France), 200 000 cells/well. At confluence the culture medium was changed to FBS-free in both the upper and lower well compartment and to the lower compartment also a mixture of […] insulin, 0.55 μg/mL transferring and 6.7 ng/mL selenium (ITS, Life Technologies) was added to establish cell polarity and structural differentiation (6-7). The cell monolayers were let to cultivate for 14 days before experiments. […]

C=C1/C(=C\C=C2/CCC[C@]3(C)[C@@H]([C@H](C)CCCC(C)(C)O)CC[C@@H]23)C[C@@H](O)C[C@@H]1O [1.25(OH)2-vitamin D3]
calcium transport (Experiment 3) (Caco-2 cells): active transport of vitamin D was confirmed

C[C@H](CCC(=O)NCC(=O)O)[C@H]1CC[C@H]2[C@@H]3[C@H](O)C[C@@H]4C[C@H](O)CC[C@]4(C)[C@H]3C[C@H](O)[C@]12C [GCA, glycocholic acid]
Hsp 90β protein expression normalized to GAPDH (Hsp 90β): no effect by itself

vitamin-D
claudin-2 protein expression (claudin-2): increase claudin-2 protein expression

From patent US11679124B2, “Composition for use in the treatment of conditions caused by calcium deficiency” (Epicyt Pharma AB, priority 2018, dated 2023)
